Measurements from ChEMBL document CHEMBL1921708, “Klymollins A-H, bioactive eunicellin-based diterpenoids from the formosan soft coral Klyxum molle” (J Nat Prod, 2011).

Experiments:
HEp-2 = experiment: Cytotoxicity against human Hep2 cells; format: cell-based
Daoy = experiment: Cytotoxicity against human DaOY cells; format: cell-based
MCF7 = experiment: Cytotoxicity against human MCF7 cells; format: cell-based
RAW264.7 [1] = experiment: Antiinflammatory activity in LPS-stimulated mouse RAW264.7 cells assessed as reduction in iNOS protein expression at 10 uM by immunoblot analysis; format: functional; set-up: scale not given: the % may be the effect or the level left
HeLa = experiment: Cytotoxicity against human HeLa cells; format: cell-based
RAW264.7 [2] = experiment: Antiinflammatory activity in LPS-stimulated mouse RAW264.7 cells assessed as reduction in COX2 protein expression at 10 uM by immunoblot analysis; format: functional; set-up: scale not given: the % may be the effect or the level left

Structure (SMILES) | Activity (HEp-2) | Activity (Daoy) | Activity (MCF7) | Activity (RAW264.7 [1]) [%] | Activity (HeLa) | Activity (RAW264.7 [2]) [%]
C=C1C[C@H]2O[C@H]([C@@H]3[C@@H](C(C)C)[C@H](OC(C)=O)[C@H](OC(C)=O)[C@@]4(CO4)[C@@H]32)[C@](C)(OC(C)=O)CC[C@@H]1O (relative stereo) | Non-toxic | Non-toxic | Non-toxic | 42.1 | Non-toxic | 
C=C1C[C@H]2O[C@H]([C@H]3[C@@H]2[C@]2(CO2)[C@@H](OC(C)=O)C[C@@H]3C(C)C)[C@](C)(OC(C)=O)CC[C@@H]1O (relative stereo) | Non-toxic | Non-toxic | Non-toxic | 25.1 | Non-toxic | 
CC(=O)O[C@H]1[C@H](C(C)C)[C@@H]2[C@@H]([C@H]3C[C@](C)(O)[C@@H](OC(C)=O)CC[C@@](C)(OC(C)=O)[C@@H]2O3)[C@]2(CO2)[C@H]1OC(C)=O (relative stereo) | Non-toxic | Non-toxic | Non-toxic | 25.7 | Non-toxic | 
CCCCCCCCCCCCCC(=O)O[C@H]1CC[C@@](C)(OC(C)=O)[C@@H]2O[C@H](C[C@]1(C)O)[C@@H]1[C@H]2[C@@H](C(C)C)[C@H](OC(C)=O)[C@H](OC(C)=O)[C@@]12CO2 (relative stereo) | Non-toxic | Non-toxic | Non-toxic | 6 | Non-toxic | 8.5
CCCCCCCCCCCCCCCC(=O)O[C@H]1CC[C@@](C)(OC(C)=O)[C@@H]2O[C@H](C[C@]1(C)O)[C@@H]1[C@H]2[C@@H](C(C)C)[C@H](OC(C)=O)[C@H](OC(C)=O)[C@@]12CO2 (relative stereo) | Non-toxic | Non-toxic | Non-toxic | 5.2 | Non-toxic | 4.4
CC(=O)O[C@H]1[C@H](C(C)C)[C@@H]2[C@@H]([C@H]3C[C@@H](C)C(=O)CC[C@@](C)(OC(C)=O)[C@@H]2O3)[C@](O)(CCl)[C@H]1OC(C)=O [KLYMOLLIN A] | Non-toxic | Non-toxic | Non-toxic |  | Non-toxic | 
CC(=O)O[C@H]1[C@H](C(C)C)[C@@H]2[C@@H]([C@H]3C[C@H](C)C(=O)CC[C@@](C)(OC(C)=O)[C@@H]2O3)[C@](O)(CCl)[C@H]1OC(C)=O [KLYMOLLIN B] | Non-toxic | Non-toxic | Non-toxic |  | Non-toxic | 
CC(=O)O[C@H]1[C@H](C(C)C)[C@@H]2[C@@H]([C@H]3C[C@](C)(O)[C@@H](OC=O)CC[C@@](C)(OC(C)=O)[C@@H]2O3)[C@]2(CO2)[C@H]1OC(C)=O [KLYMOLLIN H] | Non-toxic | Non-toxic | Non-toxic | 32.6 | Non-toxic | 
